Data published in PubChem BioAssay (NCI).
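Cultured in 96-well plates, cells were exposed to test compound for 48 hours across five concentrations. GI50 = concentration required for 50% inhibition of growth. TGI is the concentration that stops growth completely.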

Columns and labels:
Experiment in all cases: growth of human tumour cells (NCI), 48 h
[1] = test system: 786-0 renal
[2] = test system: A498 renal
[3] = test system: A549 NSCLC
[4] = test system: ACHN renal
[5] = test system: BT-549 breast
[6] = test system: CAKI-1 renal
[7] = test system: CCRF-CEM leukemia
[8] = test system: COLO 205 colon
[9] = test system: DU-145 prostate
[10] = test system: EKVX NSCLC
[11] = test system: HCC-2998 colon
[12] = test system: HCT-116 colon
[13] = test system: HCT-15 colon
[14] = test system: HL-60(TB) leukemia
[15] = test system: HOP-62 NSCLC
[16] = test system: HOP-92 NSCLC
[17] = test system: HS 578T breast
[18] = test system: HT29 colon
[19] = test system: IGROV1 ovarian
[20] = test system: K-562 leukemia
[21] = test system: KM12 colon
[22] = test system: LOX IMVI melanoma
[23] = test system: M14 melanoma
[24] = test system: MALME-3M melanoma
[25] = test system: MCF7 breast
[26] = test system: MDA-MB-231 breast
[27] = test system: MDA-MB-435
[28] = test system: MOLT-4 leukemia
[29] = test system: NCI-H226 lung

## C#CC(=O)N(c1ccc(OC)cc1OC)C(C(=O)NCC(=O)OCC)c1cccs1 (stereo not drawn)
[1]
  GI50: 19.1 nM
  TGI: 38.9 nM
[2]
  GI50: 215 nM
  TGI: 541 nM
[3]
  GI50: 5560 nM
  TGI: 31700 nM
[4]
  GI50: 114 nM
  TGI: 1250 nM
[5]
  GI50: 318 nM
  TGI: 1190 nM
[6]
  GI50: 187 nM
  TGI: 901 nM
[7]
  GI50: 27.7 nM
  TGI: 81 nM
[8]
  GI50: 1810 nM
  TGI: 3740 nM
[9]
  GI50: 436 nM
  TGI: 4020 nM
[10]
  GI50: 260 nM
  TGI: 1320 nM
[11]
  GI50: 4980 nM
  TGI: 17700 nM
[12]
  GI50: 1580 nM
  TGI: 3420 nM
[13]
  GI50: 759 nM
  TGI: 2390 nM
[14]
  GI50: 18.7 nM
  TGI: 38.7 nM
[15]
  GI50: 436 nM
  TGI: 2280 nM
[16]
  GI50: 31.3 nM
  TGI: 110 nM
[17]
  GI50: 444 nM
  TGI: 3260 nM
[18]
  GI50: 241 nM
  TGI: 610 nM
[19]
  GI50: 30 nM
  TGI: 97.9 nM
[20]
  GI50: 594 nM
  TGI: 2960 nM
[21]
  GI50: 372 nM
  TGI: 2240 nM
[22]
  GI50: < 12.5 nM
  TGI: < 18.5 nM
[23]
  GI50: 1880 nM
  TGI: 4540 nM
[24]
  GI50: 66 nM
  TGI: 164 nM
[25]
  GI50: 2040 nM
  TGI: 9100 nM
[26]
  GI50: 173 nM
  TGI: 1140 nM
[27]
  GI50: 3800 nM
  TGI: 16200 nM
[28]
  GI50: 375 nM
  TGI: 1950 nM
[29]
  GI50: 11300 nM
  TGI: 38000 nM
